{"source": "patent US11331364B2", "about": "“Use for JNK inhibitor molecules for treatment of various diseases” (Xigen Inflammation Ltd., priority 2014, dated 2022)", "key": {"human whole blood": {"test_system": "human whole blood", "assay": "CD3/CD28-induced TNF-α release in human whole blood, 3 days", "type": "cell-based", "conditions": "1, 3, 10 μM, antibodies 2 μg/mL", "experimental": "FIG. 24 JNK inhibition and TNF-α release in human whole blood. The JNK inhibitor with SEQ ID NO: 172 was added at three different concentrations, namely 1, 3 and 10 μM 1 h before whole blood stimulation with CD3+/−CD28 antibodies (2 μg/mL) for 3 days.\nWhole blood from human healthy volunteers was collected using a venipuncture connected to a pre-labeled vacuum tube containing sodium citrate. Tubes are gently mixed by inversion 7-8 times; and are then kept at RT until stimulation. 350 μl of RPMI+P/S were added into 1.2 ml-96-well plate. 10 times concentrated of SEQ ID NO: 172 was prepared in RPMI+P/S (50 μl per well). 50 μl was added into 1.2 ml-96 well plates. 50 μl of whole blood was then added in each well where either medium alone or JNK inhibitor has been previously added. Whole blood was incubated at 37° C., 5% CO2 for 60 min. 50 μl/well of ligands diluted in RPMI+P/S was prepared, corresponding to the final dilution 10 times concentrated. After 60 min of incubation, ligand was added; wells were then mixed by pipetting up and down the blood. Whole blood was incubated for 3 days at 37° C. (wells were mixed by pipetting each well up and down once per day). […] Cytokine were then measured using standard Elisa kits. Results are expressed as pg/ml of supernatant of the measured cytokine. […]"}, "[1]": {"test_system": "acute CYP-induced cystitis in female Sprague-Dawley rats", "assay": "Cyclophosphamide-induced acute cystitis, intravenous treatment, visceral pain", "type": "in vivo, rat", "conditions": "2 mg/kg, i.v.; 24 h after CYP", "experimental": "The aim of the present study was to evaluate the effects of intravenous treatment with XG-104 (2 mg/kg) on urinary bladder pain in acute CYP-induced cystitis in female Sprague-Dawley rats. This preclinical model is well-used to test therapeutic approaches for the treatment of interstitial cystitis/painful bladder syndrome (IC/PBS).\nAdult female Sprague-Dawley rats (Janvier Labs, Le Genest Saint Isle, France), weighing 215±20 g at the beginning of the experiments, were used. Animals were acclimatized to the laboratory conditions for at least 3 days before the start of any experiments. The animals were allocated to the following four experimental groups (n=10 animals per group):\nTo induce acute cystitis, a single i.p. injection of CYP at a dose of 150 mg/kg in a final volume of 5 mL/kg was performed. Control rats received physiological saline under the same experimental conditions as CYP (final volume of 5 mL/kg, i.p.).\nOn the day of each experiment, weight of rats was recorded.\nAssessment of referred visceral pain using von Frey filaments: Standardized conditions including fixed time-of-day (a.m. to minimize the potential circadian variations in the behaviours responses) and single-experimenter testing of all animals were applied to minimize variability behavior-based pain testing. Visceral pain including allodynia and hyperalgesia was evaluated by applying to the lower abdomen, close to the urinary bladder, a set of 8 calibrated von Frey filaments of increasing forces (1, 2, 4, 6, 8, 10, 26 and 60 g) with an interstimulus interval of 5 seconds. Prior testing, the abdominal area designed for mechanical stimulation of each animal was shaved. Animals were then placed on a raised wire mesh floor under individual transparent Plexiglas box and acclimatized for at least 30 minutes before starting the von Frey test. Filaments were then applied 1-2 seconds through the mesh floor with enough strength to cause the filament to slightly bend. Each filament was tested 3 times. Care was taken to stimulate different areas within the lower abdominal region in the vicinity of the urinary bladder to avoid desensitization.\nThe study design differs from that of Example 24 (cf. FIG. 50 A) only in the route of administration (intravenously instead of intravesically) and the doses as specified above. Birefly, acute cystitis was induced by CYP injection (i.p.) at Do (as described above). […]"}, "JNK": {"test_system": "JNK", "assay": "JNK and c-Jun activation after Aβ42 stress in PKR−/− primary cortical neurons", "type": "cell-based, mouse", "conditions": "10 μM, 2 μM Aβ42", "experimental": "To obtain primary cortical neuronal cultures, E15.5 mice embryos were dissected in PBS (Phosphate Buffered Saline) 6% glucose, on ice. Embryos cortices were minced into small pieces and treated with PBS glucose trypsin (Sigma Aldrich, Saint-Louis, USA) for 20 min at 37° C. Dissociated cortical cells were cultured in Neurobasal media complemented with B27, Glutamax and penicillin-streptomycin (Gibco). Neurons were cultured at 37° C., 5% CO2 on pre-coated with poly-L-lysin (Sigma Aldrich) petri dishes. Neurons were cultured to maturity (7 days) before use.\nTo induce […] stress 2 μM of Aβ1-42 (Thermo Fisher Scientific, Mass., USA) were used during 5 h on cortical neurons. Aβ42-1 inversed peptide (Thermo Fisher Scientific) was used as negative control. AP 1-42 and Aβ42-1 were dissolved in pure water and incubated at 37° C. for 48 h before use.\nTo inhibit JNK, cortical neurons were pre-treated with 10 μM of XG-104 1 h before cell-stress treatment.\nFor immunoblot analysis cells were lysed on ice in a lysis buffer containing […] NaPi pH 7.8, […] NaCl, 1% Triton, 0.5% DOC, 0.1% SDS, 10% glycerol, 0.1 μM calyculin A, 1 mM Na3VO4 and 1× of a protease inhibitor cocktail (Sigma Aldrich). Lysates were sonicated and centrifugated 10 min at 15000 g at 4° C. The supernatant protein concentration was determined with the Micro BCA protein assay kit (Thermo Scientific). Thirty micrograms of proteins were resolved on SDS-PAGE and transferred onto nitrocellulose membrane. After blocking with TBS 5% skim milk, the membranes were probed with primary antibodies to JNK full, c-Jun, PKR, eIF2α (Santa Cruz, Danvers, USA), pJNK (Millipore, Billerica, USA), phosphor eIF2a (Thermo Fisher Scientific), PARP and tubulin (Cell Signaling, Danvers, USA). IR Dyes 800 and 700 (Rockland Immunochemical Inc, Gilbertsville, USA) antibodies were used as secondary antibodies. Blots were reveled with Odyssey imaging system (LI-COR Biosciences, Lincoln, USA)."}}, "note": "Square brackets hold non-standard residues; d marks the D form. Peptide text beside a SMILES is read from it.", "data": [{"compound": "CC(C)C[C@H](NC(=O)[C@H](CC(N)=O)NC(=O)[C@H](CC(C)C)NC(=O)[C@@H](NC(=O)[C@@H](C)NC(=O)[C@@H]1CCCN1C(=O)[C@H](CCCNC(=N)N)NC(=O)[C@@H](CCCCN)NC(=O)[C@@H]1CCCN1C(=O)[C@H](CCCNC(=N)N)NC(=O)[C@@H](CCCNC(=N)N)NC(=O)[C@H](CCCNC(=N)N)NC(=O)[C@H](CCCNC(=N)N)NC(=O)[C@H](CCC(N)=O)NC(=O)[C@@H](CCCNC(=N)N)NC(=O)[C@H](CCCNC(=N)N)NC(=O)[C@H](CCCCN)NC(=O)[C@H](CCCCN)NC(=O)[C@H](N)CCCNC(=N)N)[C@@H](C)O)C(=O)N[C@H](Cc1ccccc1)C(N)=O", "note": "[SEQ ID NO: 172, rKKRrQRRrRPkRPaTLNLf] (H-[dR]KKR[dR]QRR[dR]RP[dK]RP[dA]TLNL[dF]-NH2; N-terminus assumed)", "values": [{"measurement": "CD3/CD28-induced TNF-α release", "setting": "human whole blood", "value": "did reduce the CD3/CD28-induced TNF-α release in a dose-dependent manner"}, {"measurement": "AUC 1-8 g (allodynia) vs vehicle", "setting": "[1]", "value": "significantly decreased"}, {"measurement": "AUC 8-60 g (hyperalgesia) vs vehicle", "setting": "[1]", "value": "significantly reduced"}, {"measurement": "nociceptive scores vs vehicle", "setting": "[1]", "value": "significantly decreased"}, {"measurement": "nociceptive threshold vs vehicle", "setting": "[1]", "value": "significantly increased"}, {"measurement": "c-Jun activation", "setting": "JNK; PKR−/− cultures", "value": "does not modify c-Jun activation"}, {"measurement": "decrease of c-Jun protein expression", "setting": "JNK; PKR−/− cultures", "value": 62, "unit": "%"}, {"measurement": "JNK activation", "setting": "JNK; PKR−/− neurons", "value": "−60", "unit": "%"}]}]}
